Laboratory results reported in patent US20230416248A1, “COMPOUNDS AND USES THEREOF” (Foghorn Therapeutics Inc., priority 2020, published 2023).
pIC50: −log10 of the molar value. Where two headings read alike, the source gives them in different places.

Legend:
BRM = target: T1, BRM (Homo sapiens, UniProt P51531); test: ATPase catalytic activity of BRM, ADP-Glo in vitro biochemical assay; conditions: for pIC50: 30 nM BRM, 400 μM ATP; for Ratio* (BRG1 IC50 (μM) divided by BRM IC50 (μM)): selectivity ratio BRG1 IC50 / BRM IC50
T1 construct: made in house; host or cells: High Five insect cells
T1 sequence (P51531 whole entry): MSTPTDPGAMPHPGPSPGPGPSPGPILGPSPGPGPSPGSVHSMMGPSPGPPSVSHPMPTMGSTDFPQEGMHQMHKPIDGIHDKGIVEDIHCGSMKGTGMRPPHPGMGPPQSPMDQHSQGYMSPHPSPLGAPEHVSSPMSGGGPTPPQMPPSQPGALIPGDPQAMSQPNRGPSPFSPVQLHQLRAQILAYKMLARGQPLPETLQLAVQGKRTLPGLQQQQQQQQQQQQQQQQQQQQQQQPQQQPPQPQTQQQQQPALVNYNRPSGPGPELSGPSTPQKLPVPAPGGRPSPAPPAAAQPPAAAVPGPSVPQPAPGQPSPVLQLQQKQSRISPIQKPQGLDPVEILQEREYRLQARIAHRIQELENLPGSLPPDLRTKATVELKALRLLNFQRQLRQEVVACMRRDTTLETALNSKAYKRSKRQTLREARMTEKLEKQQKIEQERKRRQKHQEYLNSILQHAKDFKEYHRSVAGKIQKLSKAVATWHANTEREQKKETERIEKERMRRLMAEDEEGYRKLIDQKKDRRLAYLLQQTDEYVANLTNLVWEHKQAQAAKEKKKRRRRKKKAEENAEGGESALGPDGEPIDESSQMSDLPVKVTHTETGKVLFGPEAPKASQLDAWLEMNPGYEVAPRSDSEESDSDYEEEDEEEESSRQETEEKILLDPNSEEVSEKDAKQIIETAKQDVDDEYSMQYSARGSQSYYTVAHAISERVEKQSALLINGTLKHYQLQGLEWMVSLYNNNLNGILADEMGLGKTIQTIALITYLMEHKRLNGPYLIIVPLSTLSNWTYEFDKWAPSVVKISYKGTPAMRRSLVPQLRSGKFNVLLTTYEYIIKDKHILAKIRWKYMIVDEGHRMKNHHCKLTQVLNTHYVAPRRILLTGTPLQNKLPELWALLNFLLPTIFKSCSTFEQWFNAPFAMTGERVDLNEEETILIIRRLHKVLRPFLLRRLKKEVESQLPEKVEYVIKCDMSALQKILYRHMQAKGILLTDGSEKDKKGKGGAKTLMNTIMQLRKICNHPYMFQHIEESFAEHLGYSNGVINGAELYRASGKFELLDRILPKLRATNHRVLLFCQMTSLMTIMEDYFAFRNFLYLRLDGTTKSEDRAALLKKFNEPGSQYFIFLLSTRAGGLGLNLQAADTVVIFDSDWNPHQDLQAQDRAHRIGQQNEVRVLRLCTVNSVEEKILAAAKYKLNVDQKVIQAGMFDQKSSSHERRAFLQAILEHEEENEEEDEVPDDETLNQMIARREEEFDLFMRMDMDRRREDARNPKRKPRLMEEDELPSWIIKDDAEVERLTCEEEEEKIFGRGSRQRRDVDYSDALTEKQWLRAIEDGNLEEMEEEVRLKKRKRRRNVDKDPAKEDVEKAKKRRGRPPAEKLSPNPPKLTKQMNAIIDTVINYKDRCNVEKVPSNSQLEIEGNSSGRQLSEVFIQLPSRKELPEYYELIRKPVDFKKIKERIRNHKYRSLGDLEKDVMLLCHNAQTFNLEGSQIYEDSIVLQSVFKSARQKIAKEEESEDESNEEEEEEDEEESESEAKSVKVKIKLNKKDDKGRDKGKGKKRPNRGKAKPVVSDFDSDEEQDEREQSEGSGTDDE
How it was run: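 Recombinant BRM (30 nM) hydrolysed 400 μM ATP with 20 nM salmon sperm DNA in pH 8 Tris buffer containing 20 mM MgCl2, 50 mM NaCl, 0.1% Tween-20 and 1 mM DTT, 1 h at room temperature. ADP formed was quantified by ADP-Glo luminescence.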

BRG-1 = target: T2, BRG-1 (Homo sapiens, UniProt P51532); test: ATPase catalytic activity of BRG-1, ADP-Glo in vitro biochemical assay; conditions: 30 nM BRG-1, 400 μM ATP, read-out: BRG1 IC50
T2 construct: made in house; host or cells: High Five insect cells
T2 sequence (P51532 whole entry): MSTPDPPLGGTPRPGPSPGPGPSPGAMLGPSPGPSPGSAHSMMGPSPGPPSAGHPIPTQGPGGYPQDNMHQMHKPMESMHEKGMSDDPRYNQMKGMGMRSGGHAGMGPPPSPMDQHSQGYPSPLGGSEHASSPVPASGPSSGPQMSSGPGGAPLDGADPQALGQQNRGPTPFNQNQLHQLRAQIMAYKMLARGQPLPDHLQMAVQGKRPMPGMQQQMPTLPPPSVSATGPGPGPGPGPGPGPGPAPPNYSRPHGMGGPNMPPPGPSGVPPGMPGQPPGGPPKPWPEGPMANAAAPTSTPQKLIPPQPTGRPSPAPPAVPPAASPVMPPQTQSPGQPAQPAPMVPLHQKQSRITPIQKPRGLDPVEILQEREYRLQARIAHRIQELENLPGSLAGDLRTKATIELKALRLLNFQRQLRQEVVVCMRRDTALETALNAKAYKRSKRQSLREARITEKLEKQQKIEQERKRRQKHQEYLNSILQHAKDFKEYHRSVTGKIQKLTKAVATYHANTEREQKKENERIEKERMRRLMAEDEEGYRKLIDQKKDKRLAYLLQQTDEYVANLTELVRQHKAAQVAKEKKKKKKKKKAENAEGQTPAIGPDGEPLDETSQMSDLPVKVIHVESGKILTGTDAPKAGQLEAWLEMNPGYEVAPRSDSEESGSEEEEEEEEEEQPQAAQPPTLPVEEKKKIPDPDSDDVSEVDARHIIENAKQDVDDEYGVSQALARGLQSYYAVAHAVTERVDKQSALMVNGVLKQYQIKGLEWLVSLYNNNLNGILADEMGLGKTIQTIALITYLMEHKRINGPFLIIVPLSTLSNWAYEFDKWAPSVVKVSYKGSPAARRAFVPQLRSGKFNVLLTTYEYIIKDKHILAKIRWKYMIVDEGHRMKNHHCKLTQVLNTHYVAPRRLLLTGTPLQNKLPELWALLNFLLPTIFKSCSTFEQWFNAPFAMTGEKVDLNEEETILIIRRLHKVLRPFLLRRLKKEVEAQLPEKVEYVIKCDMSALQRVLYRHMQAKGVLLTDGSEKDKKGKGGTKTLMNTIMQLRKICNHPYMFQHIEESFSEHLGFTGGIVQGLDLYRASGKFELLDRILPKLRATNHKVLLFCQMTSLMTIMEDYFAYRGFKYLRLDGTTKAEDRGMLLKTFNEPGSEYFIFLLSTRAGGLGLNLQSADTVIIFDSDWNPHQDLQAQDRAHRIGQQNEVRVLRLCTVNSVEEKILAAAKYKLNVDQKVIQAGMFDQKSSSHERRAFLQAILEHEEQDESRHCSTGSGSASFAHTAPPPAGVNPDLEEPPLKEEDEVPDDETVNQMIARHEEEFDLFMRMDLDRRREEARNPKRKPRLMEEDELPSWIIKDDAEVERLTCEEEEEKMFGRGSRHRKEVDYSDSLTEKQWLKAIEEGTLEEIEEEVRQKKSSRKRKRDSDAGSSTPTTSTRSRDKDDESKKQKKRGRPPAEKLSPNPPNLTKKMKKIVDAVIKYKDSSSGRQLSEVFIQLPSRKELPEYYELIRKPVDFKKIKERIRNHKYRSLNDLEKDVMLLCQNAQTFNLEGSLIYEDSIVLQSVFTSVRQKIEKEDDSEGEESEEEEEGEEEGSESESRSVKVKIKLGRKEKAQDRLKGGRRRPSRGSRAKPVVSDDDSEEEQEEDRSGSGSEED
How it was run: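 Signal reflects ADP produced by the enzyme, quantified as luminescence after unused ATP is cleared and ADP is reconverted to ATP for the luciferase reaction; both steps run at room temperature, 40 and 60 min respectively.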

[1] = ATPase catalytic activity, ADP-Glo

Row | Structure (SMILES) | pIC50 (BRM; ADP-Glo ATPase assay) | Ratio* (BRM; ratio BRG1 IC50 / BRM IC50) | pIC50 (BRG-1; ADP-Glo ATPase assay) | Ratio* (BRG1 IC50 (μM) divided by BRM IC50 (μM)) (BRM) | pIC50 (BRM; [1]) | Ratio* (BRM; ratio of BRG1 IC50 to BRM IC50) | pIC50 (BRG-1; [1])
1 | COCc1cc2c(nc1C(F)F)N(c1ccc3cnc(CNC(=O)c4ccc5c(c4)S(=O)(=O)CCOC5)cc3n1)CCC2 [Compound 835] | 7.77 | 9.15 | 6.81 | – | – | – | –
2 | CN(C)[C@@H]1CCN(c2cccc(-c3ccc4cnc(CNC(=O)c5ccc6c(c5)S(=O)(=O)CCOC6)cc4n3)n2)CC1(F)F [Compound 79] | 7.84 | – | 6.94 | 7.89 | – | – | –
3 | COCc1cc2c(c(F)c1Cl)N(c1ccc3cnc(CNC(=O)c4ccc5c(c4)S(=O)(=O)CCOC5)cc3n1)CCO2 [Compound 794] | 8.18 | 4.60 | 7.52 | – | – | – | –
4 | CCOc1cccc(-c2ccc3cnc(CNC(=O)c4cc(F)c5c(c4)S(=O)(=O)CCOC5)cc3n2)n1 [Compound 49] | 7.61 | – | 6.34 | 18.33 | – | – | –
5 | CO[C@@H](C)c1cnc2c(c1)CCCN2c1ccc2cnc(CNC(=O)c3ccc4c(c3)S(=O)(=O)CCOC4)cc2n1 [Compound 607] | – | – | – | – | 7.35 | 15.74 | 6.15
6 | C[C@@H]1CN(c2cccc(-c3ccc4cnc(CNC(=O)c5ccc6c(c5)S(=O)(=O)CCOC6(C)C)cc4n3)n2)C[C@H](C)O1 [Compound 655] | – | – | – | – | 6.60 | 15.80 | 5.41
7 | C[C@H]1COCc2ncc(C(=O)NCc3cc4nc(-c5cccc(C6CC6)n5)ccc4cn3)cc2S1(=O)=O [Compound 452] | – | – | – | – | 7.36 | 21.77 | 6.02
8 | COc1cc2c(nc1C1CC1)N(c1ccc3cnc(CNC(=O)c4ccc5c(c4)S(=O)(=O)CCOC5)cc3n1)CCC2 [Compound 683] | – | – | – | – | 7.12 | 10.42 | 6.10
9 | CCc1cnc2c(c1)OCCN2c1ccc2cnc(CNC(=O)c3ccc4c(c3)S(=O)(=O)CCOC4)cc2n1 [Compound 665] | – | – | – | – | 8.19 | 13.54 | 7.06
10 | O=C(NCc1cc2nc(N3CCCc4ccc(OCC5CCOC5)cc43)ccc2cn1)c1ccc2c(c1)S(=O)(=O)CCOC2 (stereo not drawn) [Compound 759] | 8.28 | 9.97 | 7.27 | – | – | – | –
11 | CCOc1ccnc2c1CCCN2c1ccc2cnc(CNC(=O)c3ccc4c(c3)S(=O)(=O)CCOC4)cc2n1 [Compound 573] | – | – | – | – | 8.10 | 5.56 | 7.36
12 | Cc1cc(C(=O)NCc2cc3nc(-c4cccc(N5C[C@@H](C)O[C@@H](C)C5)n4)ccc3cn2)cc2c1O[C@@H](C)CCS2(=O)=O [Compound 544] | – | – | – | – | 7.38 | 24.42 | 5.99
13 | C[C@@H]1CN(c2cccc(-c3ccc4cnc(CNC(=O)c5cnc6c(c5)S(=O)(=O)[C@@H](C)COC6)cc4c3)n2)C[C@H](C)O1 [Compound 769] | 8.08 | 3.16 | 7.58 | – | – | – | –
14 | O=C(NCc1cc2nc(-c3cccc(C4CC4)n3)ccc2cn1)c1ccc2c(c1)S(=O)(=O)CCOC2 [Compound 264] | 7.63 | – | 6.23 | 25.10 | – | – | –
15 | CS(=O)(=O)c1cc(C(=O)NCc2cc3nc(-c4cccc(N5CC[C@@H]6COC[C@@H]6C5)n4)ccc3cn2)ccc1Cl [Compound 77] | 7.11 | – | 5.97 | 13.85 | – | – | –
16 | O=C(NCc1cc2nc(N3CCOc4cc(N5CCCC5)cnc43)ccc2cn1)c1ccc2c(c1)S(=O)(=O)CCOC2 [Compound 754] | 7.72 | 10.04 | 6.72 | – | – | – | –
17 | C[C@@H]1CN(c2cccc(-c3ccc4cnc(CNC(=O)c5ccc6c(c5)S(=O)(=O)CCCC6)cc4n3)n2)C[C@H](C)O1 [Compound 91] | 8.32 | – | 7.77 | 3.52 | – | – | –
18 | CNc1cccc(-c2ccc3cnc(CNC(=O)c4ccc5c(c4)S(=O)(=O)CCOC5)cc3n2)n1 [Compound 274] | 7.16 | – | 6.23 | 8.46 | – | – | –

Row | Structure (SMILES) | pIC50 (BRM; ADP-Glo ATPase assay) | Ratio* (BRM; ratio BRG1 IC50 / BRM IC50) | pIC50 (BRG-1; ADP-Glo ATPase assay) | Ratio* (BRG1 IC50 (μM) divided by BRM IC50 (μM)) (BRM) | pIC50 (BRM; [1]) | Ratio* (BRM; ratio of BRG1 IC50 to BRM IC50) | pIC50 (BRG-1; [1])
19 | O=C(NCc1cc2nc(-c3cccc(N4CCCC4)n3)ccc2cn1)c1ccc2c(c1)S(=O)(=O)CCOC2 [Compound 220] | 7.80 | – | 6.84 | 9.02 | – | – | –
20 | O=C(NCc1cc2nc(N3CCOc4cc(C(F)F)ncc43)ccc2cn1)c1ccc2c(c1)S(=O)(=O)CCOC2 [Compound 777] | 7.13 | 13.26 | 6.01 | – | – | – | –
21 | [2H]C([2H])([2H])N(c1cccc(-c2ccc3cnc(CNC(=O)c4ccc5c(c4)S(=O)(=O)CCOC5)cc3n2)n1)C([2H])([2H])[2H] [Compound 291] | 7.99 | – | 7.01 | 9.47 | – | – | –
22 | COCc1cc(F)c2c(c1)OCCN2c1ccc2cnc(CNC(=O)c3ccc4c(c3)S(=O)(=O)CCOC4)cc2n1 [Compound 796] | 7.68 | 13.06 | 6.56 | – | – | – | –
23 | Cc1cnc2c(c1)N(C1CC1)CCN2c1ccc2cnc(CNC(=O)c3ccc4c(c3)S(=O)(=O)CCOC4)cc2n1 [Compound 748] | 7.92 | 12.75 | 6.81 | – | – | – | –
24 | Cc1cc2c(-c3ccc4cnc(CNC(=O)c5ccc(Cl)c(S(C)(=O)=O)c5)cc4n3)cccc2n1C [Compound 129] | 7.32 | – | 6.24 | 11.91 | – | – | –
25 | O=C(NCc1cc2nc(-c3cccc([C@]45CCOCC4C5)n3)ccc2cn1)c1ccc2c(c1)S(=O)(=O)CCOC2 (stereo partly drawn) [Compound 377] | – | – | – | – | 7.91 | 12.27 | 6.82
26 | O=C(NCc1cc2nc(-c3cccc(N4CCC4)n3)ccc2cn1)c1ccc2c(c1)S(=O)(=O)CCOC2 [Compound 304, N-[[2-[6-(azetidin-1-yl)-2-pyridyl]-1,6-naphthyridin-7-yl]methyl]-1,1-dioxo-3,5-dihydro-2H-4,1λ6-benzoxathiepine-8-carboxamide] | 8.03 | – | 6.87 | 14.43 | – | – | –
27 | O=C(NCc1cc2nc(N3CCCc4ccncc43)ccc2cn1)c1ccc2c(c1)S(=O)(=O)CCOC2 [Compound 52] | 7.12 | – | 6.14 | 9.43 | – | – | –
28 | Cc1ccc2c(n1)N(c1ccc3cnc(CNC(=O)c4ccc5c(c4)S(=O)(=O)CCCO5)cc3n1)CCC2 [Compound 538] | – | – | – | – | 6.94 | 14.67 | 5.78
29 | CO[C@@H]1C[C@H]1N(C)c1cccc(-c2ccc3cnc(CNC(=O)c4ccc5c(c4)S(=O)(=O)CCOC5)cc3n2)n1 [Compound 480] | – | – | – | – | 8.29 | 11.83 | 7.22
30 | COCCOc1cc(C(F)F)ccc1-c1ccc2cnc(CNC(=O)c3ccc4c(c3)S(=O)(=O)CCOC4)cc2n1 [Compound 366] | – | – | – | – | 6.49 | 9.14 | 5.53
31 | O=C(NCc1cc2nc(-c3cccc4c3OCC[C@@H]4OC3COC3)ccc2cn1)c1ccc2c(c1)S(=O)(=O)CCOC2 [Compound 410] | – | – | – | – | 6.78 | 6.68 | 5.96
32 | CN(C)c1ccc2c(n1)OCCN2c1ccc2cnc(CNC(=O)c3ccc4c(c3)S(=O)(=O)CCOC4)cc2n1 [Compound 845] | 7.67 | 8.66 | 6.74 | – | – | – | –
33 | COc1ccc2c(c1)CCN2c1ccc2cnc(CNC(=O)c3ccc4c(c3)S(=O)(=O)CCOC4)cc2n1 [Compound 653] | – | – | – | – | 6.64 | 7.47 | 5.76
34 | O=C(NCc1cc2nc(N3CCOc4ccc(C5(F)CC5(F)F)nc43)ccc2cn1)c1ccc2c(c1)S(=O)(=O)CCOC2 (stereo not drawn) [Compound 795] | 6.91 | 33.67 | 5.39 | – | – | – | –
35 | Cc1c(C2CC2)cnc2c1OCCN2c1ccc2cnc(CNC(=O)c3ccc4c(c3)S(=O)(=O)CCOC4)cc2n1 [Compound 784] | 7.61 | 8.62 | 6.67 | – | – | – | –
36 | C[C@@H]1CN(c2cccc(-c3ccc4cnc(CNC(=O)c5cnc6c(c5)S(=O)(=O)CCCC6(F)F)cc4n3)n2)C[C@H](C)O1 [Compound 407] | – | – | – | – | 7.90 | 4.69 | 7.23
